Results from ChEMBL document CHEMBL5131534, “Identification of 2-Pyridinylindole-Based Dual Antagonists of Toll-like Receptors 7 and 8 (TLR7/8)” (ACS Med Chem Lett, 2022).

Tests used:
Toll-like receptor 3 = biological target: T1, Toll-like receptor 3 (Homo sapiens, UniProt O15455); test: Antagonist activity at […] stimulated human TRL3 overexpressed in HEK293 cells assessed as inhibition of NF kappa B/Ap-1 activation preincubated with compound for 30 mins followed by […] stimulation measured after 22 hrs by SEAP reporter assay; assay type: cell-based
T1 sequence (O15455 whole entry): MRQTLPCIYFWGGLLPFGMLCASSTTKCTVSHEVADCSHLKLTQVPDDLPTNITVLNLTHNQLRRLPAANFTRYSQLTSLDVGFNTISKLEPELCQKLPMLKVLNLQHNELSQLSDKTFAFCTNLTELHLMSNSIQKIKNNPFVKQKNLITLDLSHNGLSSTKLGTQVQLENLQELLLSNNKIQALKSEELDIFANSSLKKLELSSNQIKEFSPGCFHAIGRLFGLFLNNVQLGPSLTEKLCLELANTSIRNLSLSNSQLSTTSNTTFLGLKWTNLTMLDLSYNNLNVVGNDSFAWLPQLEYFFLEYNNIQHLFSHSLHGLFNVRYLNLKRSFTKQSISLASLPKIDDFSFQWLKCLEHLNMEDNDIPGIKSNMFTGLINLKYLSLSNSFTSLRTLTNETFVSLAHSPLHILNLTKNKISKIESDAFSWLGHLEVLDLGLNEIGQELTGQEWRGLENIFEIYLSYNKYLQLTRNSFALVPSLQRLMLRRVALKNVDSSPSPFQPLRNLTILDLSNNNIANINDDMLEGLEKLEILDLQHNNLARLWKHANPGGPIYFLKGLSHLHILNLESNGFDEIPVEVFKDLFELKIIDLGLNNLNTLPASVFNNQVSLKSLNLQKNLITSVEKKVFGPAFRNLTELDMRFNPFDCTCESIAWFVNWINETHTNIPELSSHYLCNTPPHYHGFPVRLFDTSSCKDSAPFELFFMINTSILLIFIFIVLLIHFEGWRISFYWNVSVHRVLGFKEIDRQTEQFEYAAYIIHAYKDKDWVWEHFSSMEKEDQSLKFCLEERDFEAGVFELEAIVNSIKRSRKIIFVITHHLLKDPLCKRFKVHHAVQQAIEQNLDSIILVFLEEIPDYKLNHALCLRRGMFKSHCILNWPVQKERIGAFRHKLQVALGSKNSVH

Toll-like receptor 7 = biological target: T2, Toll-like receptor 7 (Mus musculus, UniProt P58681); test: Antagonist activity at gardiquimod stimulated TRL7 in mouse whole blood assessed as inhibition of IL-6 production by ELISA analysis; assay type: tissue-based
T2 sequence (P58681 whole entry): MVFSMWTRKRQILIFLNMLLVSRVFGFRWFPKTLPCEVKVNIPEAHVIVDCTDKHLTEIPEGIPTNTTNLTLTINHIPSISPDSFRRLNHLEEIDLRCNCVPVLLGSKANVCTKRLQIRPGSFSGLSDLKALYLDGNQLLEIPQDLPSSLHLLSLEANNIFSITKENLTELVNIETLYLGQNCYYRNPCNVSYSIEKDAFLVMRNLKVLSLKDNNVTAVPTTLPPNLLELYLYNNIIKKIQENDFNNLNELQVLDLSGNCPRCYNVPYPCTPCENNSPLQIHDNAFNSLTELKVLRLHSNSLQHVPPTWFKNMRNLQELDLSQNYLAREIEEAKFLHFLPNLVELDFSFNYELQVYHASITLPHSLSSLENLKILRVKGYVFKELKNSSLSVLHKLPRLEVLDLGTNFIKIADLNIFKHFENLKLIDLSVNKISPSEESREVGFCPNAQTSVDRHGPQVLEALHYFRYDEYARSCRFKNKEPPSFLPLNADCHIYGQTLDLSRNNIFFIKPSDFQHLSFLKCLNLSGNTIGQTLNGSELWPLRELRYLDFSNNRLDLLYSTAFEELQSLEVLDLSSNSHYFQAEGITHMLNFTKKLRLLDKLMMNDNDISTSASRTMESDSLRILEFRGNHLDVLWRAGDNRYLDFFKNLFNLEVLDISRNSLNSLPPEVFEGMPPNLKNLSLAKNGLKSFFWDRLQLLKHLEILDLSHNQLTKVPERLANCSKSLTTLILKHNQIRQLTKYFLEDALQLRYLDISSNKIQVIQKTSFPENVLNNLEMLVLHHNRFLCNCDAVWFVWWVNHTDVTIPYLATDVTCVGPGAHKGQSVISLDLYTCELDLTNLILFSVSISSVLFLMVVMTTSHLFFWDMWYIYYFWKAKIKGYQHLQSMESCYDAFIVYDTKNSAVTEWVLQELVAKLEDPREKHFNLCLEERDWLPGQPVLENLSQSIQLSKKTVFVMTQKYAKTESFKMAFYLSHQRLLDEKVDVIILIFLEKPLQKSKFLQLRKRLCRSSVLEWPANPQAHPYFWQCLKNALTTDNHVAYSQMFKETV

[1] = Half life in mouse blood at 5 mg/kg, iv; assay type: ADME, organism-based
[2] = In vivo antagonist activity at TRL9 in C57BL/6 mouse assessed as inhibition of ODN1585 stimulated IL-6 production at 1 mg/kg,po for 30 minutes and followed by ODN1585 addition measured after 90 mins by ELISA analysis relative to control; assay type: functional; design: scale not given: the % may be the effect or the level left; details: time 120 min, 2 h
[3] = In vivo antagonist activity at TRL9 in C57BL/6 mouse assessed as inhibition of ODN1585 stimulated IL-6 production at 3 mg/kg,po for 30 minutes and followed by ODN1585 addition measured after 90 mins by ELISA analysis relative to control; assay type: functional; design: scale not given: the % may be the effect or the level left; details: time 120 min, 2 h
[4] = In vivo antagonist activity at TRL9 in C57BL/6 mouse assessed as inhibition of ODN1585 stimulated IL-6 production at 10 mg/kg,po for 30 minutes and followed by ODN1585 addition measured after 90 mins by ELISA analysis relative to control; assay type: functional; design: scale not given: the % may be the effect or the level left; details: time 120 min, 2 h
Mus musculus [5] = test: Anti-inflammatory activity against MRL/Ipr Systemic lupus erythematosus mouse model assessed as inhibition of proteinuria at 1 mg/kg, po administered for 8 weeks and measured 24 hrs post final dose relative to control; assay type: functional; design: scale not given: the % may be the effect or the level left; details: time 1368 hrs
Mus musculus [6] = test: Anti-inflammatory activity against MRL/Ipr Systemic lupus erythematosus mouse model assessed as inhibition of urinary NGAL at 1 mg/kg, po administered for 8 weeks and measured 24 hrs post final dose relative to control; assay type: functional; design: scale not given: the % may be the effect or the level left; details: time 1368 hrs
Mus musculus [7] = test: Anti-inflammatory activity against MRL/Ipr Systemic lupus erythematosus mouse model assessed as inhibition of urinary NGAL at 5 mg/kg, po administered for 8 weeks and measured 24 hrs post final dose relative to control; assay type: functional; design: scale not given: the % may be the effect or the level left; details: time 1368 hrs
Mus musculus [8] = test: Anti-inflammatory activity against MRL/Ipr Systemic lupus erythematosus mouse model assessed as inhibition of anti-dsDNA Ab titer at 5 mg/kg, po administered for 8 weeks and measured 24 hrs post final dose relative to control; assay type: functional; design: scale not given: the % may be the effect or the level left; details: time 1368 hrs
[9] = Toxicity in MRL/Ipr Systemic lupus erythematosus mouse model assessed as relative spleen weight at 1 mg/kg, po administered for 8 weeks and measured 24 hrs post final dose relative to control; assay type: organism-based; details: in vivo, 1368 h
[10] = Toxicity in MRL/Ipr Systemic lupus erythematosus mouse model assessed as relative spleen weight at 5 mg/kg, po administered for 8 weeks and measured 24 hrs post final dose relative to control; assay type: organism-based; details: in vivo, 1368 h

Cc1cc(-c2[nH]c3ccc(C4CCNCC4)cc3c2C(C)C)cc(C)n1
IC50 (Toll-like receptor 3): > 10000 nM
IC50 (Toll-like receptor 7): 0.3 nM
half-life [1]: 9 h
Activity [2]: 16%
Activity [3]: 29%
Activity [4]: 33%
Activity (Mus musculus [5]): 92%
Activity (Mus musculus [6]): 69%
Activity (Mus musculus [7]): 72%
Activity (Mus musculus [8]): 20%
Activity [9]: 48%
Activity [10]: 49%
